# Where two headings read alike, the source gives them in different places. Where a SMILES comes first, the peptide text is derived from it.
# What was measured:
# glucose oxidase = molecular target: T1, glucose oxidase (Aspergillus niger, UniProt P13006); experiment: Activity recovery of glucose oxidase in dry formulations following gamma irradiation; assay type: physicochemical; settings: glucose oxidase 350 μg mL^−1 prior to drying, dry, 25-40 kGy
# T1 construct: purchased Biocatalysts G575P
# Procedure: (§1) In each example, an aqueous solution of a protein was prepared with selected additives in an Eppendorf tube or in a glass vial. Water was removed from the formulation by drying under a stream of nitrogen at 30° C. and subsequent incubation at atmospheric pressure in the presence of a dessicant. The Eppendorf tubes or the glass vials were sealed and delivered to an industrial sterilisation service for gamma irradiation, with a dose range typical for sterile medical products. The gamma-irradiated samples were reconstituted on their return and analysed for protein activity or structural integrity. The results were compared with those achieved using control (i.e. non-irradiated) samples.
# (§2) The dry samples (approx. 20 μg in an Eppendorf tube) were gamma-irradiated by an industry-standard commercial sterilising service provided by Isotron PLC (Swindon, Wilts, UK), using a Cobalt 60 gamma source at ambient temperature. The radiation dose was in the range of 25-40 kGy.
# (§3) The original solutions (i.e. solutions prior to drying) contained 350 μg mL^−1 of glucose oxidase and typically the total of 100 mM of protective compounds (i.e. 100 mM in case of a single compound, 50 mM+50 mM in case of two compounds, 33.3 mM+33.3 mM+33.3 mM in the case of three compounds etc.). The solutions were dried and gamma irradiated. Following the gamma irradiation, the samples, both pre- and post-gamma irradiated, were assayed for glucose oxidase activity. This was performed according to the following procedure:
# Water was added to the sample to achieve 350 μg mL^−1 of glucose oxidase. 50 μL of the solution was added to 50 mL of deionised water. The following solutions were then added: • 10 mL of reagent mix (5 parts of 0.1 M sodium phosphate, pH 6+4 parts 2% w/w starch+1 part of 1 mg/mL lactoperoxidase enzyme); • 5 mL of 100 mM potassium iodide; and • 5 mL of 20% w/w glucose solution.
# These were mixed together quickly. Time=0 was counted from the addition of the glucose. After 5 min, 1 ml of 5 M aq. hydrochloric acid was added to stop the reaction. The absorbance was then read at 630 nm using a Unicam UV-visible spectrophotometer (Type: Helios gamma). If the colour intensity was too great to allow an accurate reading, the sample was diluted with a defined volume of deionised water to bring the colour back on scale. The results were expressed as percentage recovery, by reference to the absorbance measured in the pre-gamma irradiation samples.
# catalase = molecular target: T2, catalase (Bos taurus, UniProt P00432); experiment: Activity recovery of catalase in dry formulations following gamma irradiation; assay type: physicochemical, bovine; settings: for Enzyme activity remaining after gamma-irradiation: catalase 100 μg mL^−1 prior to drying, dry, 25-40 kGy
# T2 construct: Catalase (from bovine liver, Sigma C9322, 2380 U /mg solid); purchased Sigma C9322; host or cells: bovine liver
# T2 sequence (P00432 2-527 limits assumed): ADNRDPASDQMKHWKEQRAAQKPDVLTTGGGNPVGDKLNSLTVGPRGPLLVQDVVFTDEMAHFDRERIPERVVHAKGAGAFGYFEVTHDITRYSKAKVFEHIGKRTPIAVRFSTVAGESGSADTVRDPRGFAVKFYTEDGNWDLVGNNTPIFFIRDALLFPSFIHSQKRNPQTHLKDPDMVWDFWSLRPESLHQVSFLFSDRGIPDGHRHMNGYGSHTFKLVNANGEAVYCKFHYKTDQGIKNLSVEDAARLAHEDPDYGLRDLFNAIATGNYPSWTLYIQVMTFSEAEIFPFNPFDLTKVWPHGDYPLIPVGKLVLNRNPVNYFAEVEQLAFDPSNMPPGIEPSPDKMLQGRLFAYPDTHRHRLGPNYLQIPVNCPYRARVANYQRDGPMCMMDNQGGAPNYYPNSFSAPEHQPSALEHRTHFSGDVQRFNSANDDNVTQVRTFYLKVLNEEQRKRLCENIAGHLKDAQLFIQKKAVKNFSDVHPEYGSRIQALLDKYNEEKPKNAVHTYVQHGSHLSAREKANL
# Procedure: as §1, §2
# as §3, with “contained 100” for “contained 350”, “of catalase” for “of glucose oxidase”
# Water was added to the sample to achieve 100 μg mL^−1 of catalase. 100 μL of the solution was added to a mixture of 18 mL of PBS and 2 mL of hydrogen peroxide (30 mM in water) in a 125 mL polypropylene pot and mixed. The resulting mixture was incubated at room temperature precisely for 30 min. In the meantime, the following reagents were mixed in a plastic cuvette for spectrophotometric measurements: • 2.73 mL of citrate/phosphate buffer (0.1 M, pH 5.0) • 100 μL of tetramethylbenzidine (TMB) (3 mg/mL, dissolved in dimethyl sulphoxide (DMSO)) • 100 μL of lactoperoxidase
# Following the 30 min incubation period, 70 μL of the catalase containing mixture was added to the cuvette and absorbance was read in approximately 30 s. The results were expressed as percentage recovery, by reference to the absorbance measured in the fresh samples (i.e. prior to incubation at increased temperature).
# [1] = cited from earlier work; for Rate constant k: Table 1, singlet oxygen scavengers, measured in specified solvents
# Sandostatin = experiment: Recovery of structural integrity of Sandostatin in dry formulations following gamma irradiation (HPLC); assay type: physicochemical; settings: structural integrity by HPLC, excipient:Sandostatin weight ratio 10:1, 25-40 kGy
# Procedure: as §1, §2
# Mobile phase A was 0.1 M triethylamine adjusted to pH 2.3 with phosphoric acid. Mobile phase B was acetonitrile. The mobile phases were filtered prior to their use. The following linear gradient was used: time 0: 90% A+10% B; time 35 min: 60% A+40% B. The liquid chromatograph (Agilent 1100 series) was equipped with a 214 nm detector, guard column and a 4.6×150 mm C18 column with a granulometry of 5 μm and a porosity of 30 nm, maintained at ambient temperature. The flow rate was maintained at 1.0 mL min^−1. Injection volume was 50 μL (typically sandostatin at 200 μg mL^−1). Results were expressed as % of main peak area (i.e. area of the peak corresponding to intact sandostatin measured in the gamma irradiated sample with respect to that measured in non-irradiated sample of identical composition). A chromatogram of a standard solution of sandostatin was recorded after every 12 samples to ensure that no drift in the position of the major peak had occurred. The control measurements ruled out any ambiguity in interpreting the chromatograms.
# human growth hormone = molecular target: T3, human growth hormone (Homo sapiens, UniProt P01241); experiment: Recovery of structural integrity of human growth hormone in dry formulations following gamma irradiation (HPLC); assay type: physicochemical; settings: structural integrity by HPLC, human growth hormone 2.5 mg mL^−1 prior to drying, 25-40 kGy
# T3 construct: purchased National Institute of Biological Standards and Control; further samples on prescription from a GP surgery
# Procedure: as §1, §2
# Mobile phase was prepared by mixing 71 parts (by volume) of a solution of TRIS (0.05 M, in water adjusted with hydrochloric acid to a pH of 7.5) and 29 parts (by volume) of n-propylalcohol. The mobile phase was filtered prior to its use. The liquid chromatograph (Agilent 1100 series) was equipped with a 214 nm detector and a 4.6×250 mm column (Phenomenex 00G-4167-E0) packed with butylsilyl silica gel with a granulometry of 5 μm and a porosity of 30 nm, maintained at 45° C. The flow rate was maintained at 0.5 mL min^−1. 15 μL of aqueous samples of human growth hormone (typically 1-2.5 mg mL^−1) were injected. Results were expressed as % of peak area corresponding to the gamma irradiated sample with respect to that measured in non-irradiated sample.
# [2] = Table 5, singlet oxygen scavengers, ambient temperature
# [3] = Table 6, singlet oxygen scavengers, ambient temperature
# [4] = Table 12, superoxide scavengers
# [5] = Table 10, superoxide scavengers
# [6] = Table 11, superoxide scavengers
# [7] = Table 3, prior-art antioxidants, ambient temperature, vs non-irradiated
# [8] = Table 4, prior-art antioxidants, ambient temperature
# [9] = Table 8, singlet oxygen scavengers
# [10] = Table 7, singlet oxygen scavengers
# T1 sequence (P13006 17-605): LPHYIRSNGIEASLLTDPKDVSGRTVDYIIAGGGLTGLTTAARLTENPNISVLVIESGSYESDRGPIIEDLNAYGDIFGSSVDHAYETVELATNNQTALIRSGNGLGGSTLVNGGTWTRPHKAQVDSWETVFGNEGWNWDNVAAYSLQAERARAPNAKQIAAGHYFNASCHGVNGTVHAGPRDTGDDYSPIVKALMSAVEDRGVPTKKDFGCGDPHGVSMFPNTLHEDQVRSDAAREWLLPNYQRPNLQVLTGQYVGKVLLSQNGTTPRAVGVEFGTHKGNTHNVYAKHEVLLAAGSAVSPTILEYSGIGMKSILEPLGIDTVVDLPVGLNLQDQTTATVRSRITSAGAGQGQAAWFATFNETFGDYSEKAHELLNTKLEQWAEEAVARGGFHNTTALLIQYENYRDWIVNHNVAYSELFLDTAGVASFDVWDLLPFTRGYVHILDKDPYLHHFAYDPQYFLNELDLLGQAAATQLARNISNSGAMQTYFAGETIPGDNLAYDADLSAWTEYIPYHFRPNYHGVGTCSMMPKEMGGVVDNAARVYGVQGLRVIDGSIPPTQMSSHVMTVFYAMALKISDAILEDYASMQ
# T3 sequence (P01241 27-217): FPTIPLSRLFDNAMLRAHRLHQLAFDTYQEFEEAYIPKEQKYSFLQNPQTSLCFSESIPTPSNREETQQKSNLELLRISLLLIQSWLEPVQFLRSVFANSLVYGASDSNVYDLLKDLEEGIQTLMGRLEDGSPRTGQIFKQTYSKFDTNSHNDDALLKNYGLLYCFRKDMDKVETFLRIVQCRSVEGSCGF
compound,measurement,setting,value
C[C@H](N)C(=O)O [Alanine],Enzyme activity remaining after gamma-irradiation,glucose oxidase; [2],15.3%
same,Enzyme activity remaining after gamma-irradiation,catalase; [3],8.8%
same,Rate constant k,[1],k = 3.0 × 10^7 L mol^−1 s^−1
same,Rate of reaction with singlet oxygen,[1]; Table 5,3e+07 M⁻¹ s⁻¹
same,Rate of reaction with singlet oxygen,[1]; Table 6,3e+07 M⁻¹ s⁻¹
[N-]=[N+]=[N-] [Azide anion],Rate constant k,[1],k = 4.5 × 10^8 L mol^−1 s^−1
O=C(O)CC(O)(CC(=O)O)C(=O)O [Citrate],Enzyme activity remaining after gamma-irradiation,"glucose oxidase; Table 9, superoxide scavengers",32.0%
same,Enzyme activity remaining after gamma-irradiation,Sandostatin; [4],91.8%
same,Enzyme activity remaining after gamma-irradiation,catalase; [5],39.5%
same,Structural integrity remaining after gamma-irradiation (HPLC),human growth hormone; [6],45.6%
[Cu+2] [Copper(II) ion],Rate constant k,[1],k = 6.4 × 10^7 L mol^−1 s^−1
N[C@@H](CS)C(=O)O [Cysteine anion],Rate constant k,[1],k = 1.5 × 10^8 L mol^−1 s^−1
CC12CCC(CC1)C(C)(C)O2 [Eucaliptol],Enzyme activity remaining after gamma-irradiation,"glucose oxidase; Table 13, ozone scavengers",17.5%
same,Compatibility of the compound with catalase,catalase; as excipient in the formulation,inhibit catalase
NCC(=O)NCC(=O)O [Glycylglycine] (H-Gly-Gly-OH),Enzyme activity remaining after gamma-irradiation,glucose oxidase; [7],20.1%
same,Structural integrity remaining after gamma-irradiation (HPLC),human growth hormone; [8],47.2%
N[C@@H](Cc1c[nH]cn1)C(=O)O [Histidine],Enzyme activity remaining after gamma-irradiation,glucose oxidase; [2],57.9%
same,Enzyme activity remaining after gamma-irradiation,Sandostatin; [9],85.0%
same,Enzyme activity remaining after gamma-irradiation,catalase; [3],18.3%
same,Structural integrity remaining after gamma-irradiation (HPLC),human growth hormone; [10],55.5%
same,Rate constant k,[1],k = 4.6 × 10^7 L mol^−1 s^−1
same,Rate of reaction with singlet oxygen,[1]; Table 5,4.6e+07 M⁻¹ s⁻¹
same,Rate of reaction with singlet oxygen,[1]; Table 6,4.6e+07 M⁻¹ s⁻¹
same,Rate of reaction with singlet oxygen,[1]; Table 7,4.6e+07 M⁻¹ s⁻¹
same,Rate of reaction with singlet oxygen,[1]; Table 8,4.6e+07 M⁻¹ s⁻¹
O=C(O)CC(O)C(=O)O (stereo not drawn) [Malate],Enzyme activity remaining after gamma-irradiation,"glucose oxidase; Table 9, superoxide scavengers",40.7%
same,Enzyme activity remaining after gamma-irradiation,Sandostatin; [4],87.7%
same,Enzyme activity remaining after gamma-irradiation,catalase; [5],40.9%
same,Structural integrity remaining after gamma-irradiation (HPLC),human growth hormone; [6],52.1%
OC[C@@H](O)[C@@H](O)[C@H](O)[C@H](O)CO [Mannitol],Enzyme activity remaining after gamma-irradiation,"glucose oxidase; Table 9, superoxide scavengers",17.2%
same,Enzyme activity remaining after gamma-irradiation,Sandostatin; [4],72.6%
same,Enzyme activity remaining after gamma-irradiation,catalase; [5],36.3%
same,Structural integrity remaining after gamma-irradiation (HPLC),human growth hormone; [6],28.3%
NC(=O)C1=CN([C@@H]2O[C@H](COP(=O)(O)OP(=O)(O)OC[C@H]3O[C@@H](n4cnc5c(N)ncnc54)[C@H](O)[C@@H]3O)[C@@H](O)[C@H]2O)C=CC1 [NADH],Rate constant k,[1],k = 2 × 10^7 L mol^−1 s^−1
[Ni+2] [Nickel (II) ion],Rate constant k,[1],k = 3.3 × 10^7 L mol^−1 s^−1
"CC(=O)CCCCn1c(=O)c2c(ncn2C)n(C)c1=O [Pentoxyfylline, reference compound]",Enzyme activity remaining after gamma-irradiation,"glucose oxidase; Table 13, ozone scavengers",36.2%
same,Enzyme activity remaining after gamma-irradiation,"catalase; Table 14, ozone scavenger",77.0%
same,Structural integrity remaining after gamma-irradiation (HPLC),"human growth hormone; Table 15, ozone scavenger",46.0%
Cc1ncc(C[n+]2csc(CCO)c2C)c(N)n1 [Thiamine],Enzyme activity remaining after gamma-irradiation,glucose oxidase; [2],43.1%
same,Enzyme activity remaining after gamma-irradiation,Sandostatin; [9],87.7%
same,Enzyme activity remaining after gamma-irradiation,catalase; [3],26.1%
same,Structural integrity remaining after gamma-irradiation (HPLC),human growth hormone; [10],48.8%
same,Rate constant k,[1],k = 6 × 10^7 L mol^−1 s^−1
same,Rate of reaction with singlet oxygen,[1]; Table 5,6e+07 M⁻¹ s⁻¹
same,Rate of reaction with singlet oxygen,[1]; Table 6,6e+07 M⁻¹ s⁻¹
same,Rate of reaction with singlet oxygen,[1]; Table 7,6e+07 M⁻¹ s⁻¹
same,Rate of reaction with singlet oxygen,[1]; Table 8,6e+07 M⁻¹ s⁻¹
O=S(=O)(O)c1cc(O)c(O)c(S(=O)(=O)O)c1 [Tiron],Enzyme activity remaining after gamma-irradiation,"glucose oxidase; Table 9, superoxide scavengers",27.5%
same,Enzyme activity remaining after gamma-irradiation,Sandostatin; [4],89.7%
same,Enzyme activity remaining after gamma-irradiation,catalase; [5],17.9%
same,Structural integrity remaining after gamma-irradiation (HPLC),human growth hormone; [6],55.7%
Cc1c(C)c2c(c(C)c1O)CCC(C)(C(=O)O)O2 (stereo not drawn) [Trolox],Enzyme activity remaining after gamma-irradiation,glucose oxidase; [7],45.9%
same,Structural integrity remaining after gamma-irradiation (HPLC),human growth hormone; [8],49.6%
Oc1nc(O)c2nc(O)[nH]c2n1 [Urate],Enzyme activity remaining after gamma-irradiation,glucose oxidase; [7],32.6%
same,Structural integrity remaining after gamma-irradiation (HPLC),human growth hormone; [8],61.5%
Silymarine,Enzyme activity remaining after gamma-irradiation,glucose oxidase; [7],46.3%
same,Structural integrity remaining after gamma-irradiation (HPLC),human growth hormone; [8],63.0%

# Source: patent US20100029542A1, “PROTEIN STERILISATION BY RADIATION AND ADDITION OF A STABILISING COMPOSITION” (priority 2006, published 2010)
